In patent US8247211B2, “Glycopeptide antibiotics” (American Cyanamid Company, priority 2001, dated 2012):
In brackets after ≈: the same amount, converted by molar mass.

Columns and labels:
Assay in all cases: In vitro antibacterial evaluation: minimum inhibitory concentration (MIC), broth dilution method
Format in all cases: cell-based
Enterococcus sp. = conditions: broth dilution, 5×10^5 CFU/mL, 18 hours at 35° C.
In short: (§1)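 Using Muller-Hinton II […] and an inoculum of 5×10^5 CFU/mL, antibiotic dilutions from 64 down to 0.06 μg/mL were tested following NCCLS M7-A2. The MIC is the lowest concentration inhibiting growth, including in methicillin-, penicillin- or vancomycin-resistant clinical isolates.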

Escherichia coli = conditions: 5×10^5 CFU/mL, 18 hours at 35° C.
In short: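 First, organisms are seeded at 5×10^5 CFU/mL into Muller-Hinton II […]. Next, antibiotic is applied across 64-0.06 μg/mL by broth dilution (NCCLS M7-A2). Finally, the lowest inhibitory concentration is recorded as MIC.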

Staphylococcus sp. = conditions: for MIC Staphylococcus aureus (ATCC 29213): strain ATCC 29213; for MIC Staphylococcus aureus (GC 1131): strain GC 1131; for MIC Staphylococcus aureus (GC 4541): strain GC 4541; for MIC Staphylococcus aureus (GC 4542): strain GC 4542; for MIC Staphylococcus aureus (GC 4544): strain GC 4544; for MIC Staphylococcus aureus (GC 4545): strain GC 4545; for MIC Coagulase Negative Staphylococcus (ID-3941): strain ID-3941; for MIC Staphylococcus aureus (GC 3051): strain GC 3051; for MIC Staphylococcus aureus (GC 3053): strain GC 3053
In short: as §1

Streptococcus sp. = conditions: broth dilution, 5×10^5 CFU/mL, 18 hours at 35° C.
In short: as §1

[1] = broth dilution, 18 hours at 35° C.
[2] = strain GC 4543, broth dilution, 18 hours at 35° C.
[3] = strain GC 4546, broth dilution, 18 hours at 35° C.
[4] = strain GC 4547, broth dilution, 18 hours at 35° C.
[5] = strain GC 4548, broth dilution, 18 hours at 35° C.
[6] = strain GC 4549, broth dilution, 18 hours at 35° C.
[7] = strain GC 4551, broth dilution, 18 hours at 35° C.
[8] = broth dilution, 5×10^5 CFU/mL, 18 hours at 35° C.

CCCCCC1OCC2OC(OC3C(CO)OC(Oc4ccc(CC5NC(=O)C(C(C)c6ccccc6)NC(=O)CNC(=O)C(CO)NC(=O)C(C(O)C6CNC(=N)N6C6OC(CO)C(O)C(O)C6O)NC(=O)C(C(O)C6CNC(=N)N6)NC5=O)cc4)C(O)C3O)C(O)C(O)C2O1 (stereo not drawn) [Example 108, Cyclo[glycyl-β-methylphenylalanyl-O-[4-O-(4,6-O-hexylidenehexonyranosyl)hexopyranosyl]-tyrosyl-3-(2-iminoimidazolidin-4-yl)seryl-3-(3-hexopyranosyl-2-iminoimidazolidin-4-yl)-serylseryl]]
MIC Enterococccus avium (GC 4558) (Enterococcus sp.): 2 µg/mL (≈ 1.45 µM)
MIC Enterococccus faecalis (ATCC 29212) (Enterococcus sp.): 2 µg/mL (≈ 1.45 µM)
MIC Enterococccus faecalis (GC 4552) (Enterococcus sp.): 2 µg/mL (≈ 1.45 µM)
MIC Enterococccus faecalis (GC 4553) (Enterococcus sp.): 2 µg/mL (≈ 1.45 µM)
MIC Enterococccus faecalis (GC 4554) (Enterococcus sp.): 2 µg/mL (≈ 1.45 µM)
MIC Enterococccus faecium (GC 2243) (Enterococcus sp.): 2 µg/mL (≈ 1.45 µM)
MIC Enterococccus faecium (GC 4556) (Enterococcus sp.): 2 µg/mL (≈ 1.45 µM)
MIC Enterococccus faecium (GC 4557) (Enterococcus sp.): 1 µg/mL (≈ 0.726 µM)
MIC Enterococcus faecalis (GC 2242) (Enterococcus sp.): 2 µg/mL (≈ 1.45 µM)
MIC Escherichia coli (ATCC 25922) (Escherichia coli): 32 µg/mL (≈ 23.2 µM)
MIC Staphylococcus aureus (ATCC 29213) (Staphylococcus sp.): 1 µg/mL (≈ 0.726 µM)
MIC Staphylococcus aureus (ATCC 29213) (Staphylococcus sp.; [1]): 1 µg/mL (≈ 0.726 µM)
MIC Staphylococcus aureus (GC 1131) (Staphylococcus sp.): 1 µg/mL (≈ 0.726 µM)
MIC Staphylococcus aureus (GC 1131) (Staphylococcus sp.; [1]): 1 µg/mL (≈ 0.726 µM)
MIC Staphylococcus aureus (GC 4541) (Staphylococcus sp.): 1 µg/mL (≈ 0.726 µM)
MIC Staphylococcus aureus (GC 4541) (Staphylococcus sp.; [1]): 1 µg/mL (≈ 0.726 µM)
MIC Staphylococcus aureus (GC 4542) (Staphylococcus sp.): 1 µg/mL (≈ 0.726 µM)
MIC Staphylococcus aureus (GC 4542) (Staphylococcus sp.; [1]): 1 µg/mL (≈ 0.726 µM)
MIC Staphylococcus aureus-SMITH (GC 4543) (Staphylococcus sp.; strain GC 4543, 18 hours at 35° C.): 1 µg/mL (≈ 0.726 µM)
MIC Staphylococcus aureus-SMITH (GC 4543) (Staphylococcus sp.; [2]): 1 µg/mL (≈ 0.726 µM)
MIC Staphylococcus aureus (GC 4544) (Staphylococcus sp.): 1 µg/mL (≈ 0.726 µM)
MIC Staphylococcus aureus (GC 4544) (Staphylococcus sp.; [1]): 1 µg/mL (≈ 0.726 µM)
MIC Staphylococcus aureus (GC 4545) (Staphylococcus sp.): 1 µg/mL (≈ 0.726 µM)
MIC Staphylococcus aureus (GC 4545) (Staphylococcus sp.; [1]): 1 µg/mL (≈ 0.726 µM)
MIC Staphylococcus haemolyticus (GC 4546) (Staphylococcus sp.; strain GC 4546): 1 µg/mL (≈ 0.726 µM)
MIC Staphylococcus haemolyticus (GC 4546) (Staphylococcus sp.; [3]): 1 µg/mL (≈ 0.726 µM)
MIC Coagulase Negative Staphylococcus (GC 4547) (Staphylococcus sp.; strain GC 4547): 1 µg/mL (≈ 0.726 µM)
MIC Coagulase Negative Staphylococcus (GC 4547) (Staphylococcus sp.; [4]): 1 µg/mL (≈ 0.726 µM)
MIC Coagulase Negative Staphylococcus (GC 4548) (Staphylococcus sp.; strain GC 4548): <0.5 µg/mL
MIC Coagulase Negative Staphylococcus (GC 4548) (Staphylococcus sp.; [5]): <0.5 µg/mL
MIC Coagulase Negative Staphylococcus (GC 4549) (Staphylococcus sp.; strain GC 4549): 1 µg/mL (≈ 0.726 µM)
MIC Coagulase Negative Staphylococcus (GC 4549) (Staphylococcus sp.; [6]): 1 µg/mL (≈ 0.726 µM)
MIC Coagulase Negative Staphylococcus (GC 4551) (Staphylococcus sp.; strain GC 4551): 1 µg/mL (≈ 0.726 µM)
MIC Coagulase Negative Staphylococcus (GC 4551) (Staphylococcus sp.; [7]): 1 µg/mL (≈ 0.726 µM)
MIC Coagulase Negative Staphylococcus (ID-3941) (Staphylococcus sp.): 1 µg/mL (≈ 0.726 µM)
MIC Coagulase Negative Staphylococcus (ID-3941) (Staphylococcus sp.; [1]): 1 µg/mL (≈ 0.726 µM)
MIC Streptococcus agalactiae (GC 4564) (Streptococcus sp.): <0.5 µg/mL
MIC Streptococcus pneumoniae (GC 4565) (Streptococcus sp.): <0.5 µg/mL
MIC Streptococcus pyogenes (ID-3187) (Streptococcus sp.): <0.5 µg/mL

COC1CCC2(C)C(CCC3C2CCC2(C)C(C(C)CCC4OCC5OC(OC6C(CO)OC(Oc7ccc(CC8NC(=O)C(C(C)c9ccccc9)NC(=O)CNC(=O)C(CO)NC(=O)C(C(O)C9CNC(=N)N9C9OC(CO)C(O)C(O)C9O)NC(=O)C(C(O)C9CNC(=N)N9)NC8=O)cc7)C(O)C6O)C(O)C(O)C5O4)CCC32)C1 (stereo not drawn) [Example 130, Cyclo[glycyl-β-methylphenylalanyl-O-[4-O-[4,6-O-(3-methoxycholan-24-ylidene)hexopyranosyl]hexopyranosyl]tyrosyl-3-(2-iminoimidazolidin-4-yl)seryl-3-(3-hexopyranosyl-2-iminoimidazolidin-4-yl)serylseryl]]
MIC Enterococccus avium (GC 4558) (Enterococcus sp.): 16 µg/mL (≈ 9.69 µM)
MIC Enterococccus faecalis (ATCC 29212) (Enterococcus sp.): 32 µg/mL (≈ 19.4 µM)
MIC Enterococccus faecalis (GC 2691) (Enterococcus sp.): 32 µg/mL (≈ 19.4 µM)
MIC Enterococccus faecalis (GC 3059) (Enterococcus sp.): 64 µg/mL (≈ 38.7 µM)
MIC Enterococccus faecalis (GC 4552) (Enterococcus sp.): 32 µg/mL (≈ 19.4 µM)
MIC Enterococccus faecalis (GC 4553) (Enterococcus sp.): 8 µg/mL (≈ 4.84 µM)
MIC Enterococccus faecalis (GC 4554) (Enterococcus sp.): 32 µg/mL (≈ 19.4 µM)
MIC Enterococccus faecalis (GC 6189) (Enterococcus sp.): 32 µg/mL (≈ 19.4 µM)
MIC Enterococccus faecium (GC 2243) (Enterococcus sp.): 8 µg/mL (≈ 4.84 µM)
MIC Enterococccus faecium (GC 4556) (Enterococcus sp.): 64 µg/mL (≈ 38.7 µM)
MIC Enterococccus faecium (GC 4557) (Enterococcus sp.): 32 µg/mL (≈ 19.4 µM)
MIC Enterococcus faecalis (GC 2242) (Enterococcus sp.): 32 µg/mL (≈ 19.4 µM)
MIC Escherichia coli (ATCC 25922) (Escherichia coli): >64 µg/mL
MIC Escherichia coli (GC 4559) (Escherichia coli): >64 µg/mL
MIC Escherichia coli (GC 4560) (Escherichia coli): 64 µg/mL (≈ 38.7 µM)
MIC Coagulase Negative Staphylococcus (GC 4547) (Staphylococcus sp.; [8]): 32 µg/mL (≈ 19.4 µM)
MIC Coagulase Negative Staphylococcus (GC 4548) (Staphylococcus sp.; [8]): 32 µg/mL (≈ 19.4 µM)
MIC Coagulase Negative Staphylococcus (GC 4549) (Staphylococcus sp.; [8]): 16 µg/mL (≈ 9.69 µM)
MIC Coagulase Negative Staphylococcus (GC 4551) (Staphylococcus sp.; [8]): 32 µg/mL (≈ 19.4 µM)
MIC Coagulase Negative Staphylococcus (GC 6257) (Staphylococcus sp.; [8]): 32 µg/mL (≈ 19.4 µM)
MIC Staphylococcus aureus-SMITH (GC 4543) (Staphylococcus sp.; [8]): 32 µg/mL (≈ 19.4 µM)
MIC Staphylococcus haemolyticus (GC 4546) (Staphylococcus sp.; [8]): 32 µg/mL (≈ 19.4 µM)
MIC Staphylococcus aureus (ATCC 29213) (Staphylococcus sp.): 32 µg/mL (≈ 19.4 µM)
MIC Staphylococcus aureus (ATCC 29213) (Staphylococcus sp.; [1]): 32 µg/mL (≈ 19.4 µM)
MIC Staphylococcus aureus (GC 1131) (Staphylococcus sp.): 32 µg/mL (≈ 19.4 µM)
MIC Staphylococcus aureus (GC 1131) (Staphylococcus sp.; [1]): 32 µg/mL (≈ 19.4 µM)
MIC Staphylococcus aureus (GC 3051) (Staphylococcus sp.): 32 µg/mL (≈ 19.4 µM)
MIC Staphylococcus aureus (GC 3051) (Staphylococcus sp.; [1]): 32 µg/mL (≈ 19.4 µM)
MIC Staphylococcus aureus (GC 3053) (Staphylococcus sp.): 32 µg/mL (≈ 19.4 µM)
MIC Staphylococcus aureus (GC 3053) (Staphylococcus sp.; [1]): 32 µg/mL (≈ 19.4 µM)
MIC Staphylococcus aureus (GC 4541) (Staphylococcus sp.): 32 µg/mL (≈ 19.4 µM)
MIC Staphylococcus aureus (GC 4541) (Staphylococcus sp.; [1]): 32 µg/mL (≈ 19.4 µM)
MIC Staphylococcus aureus (GC 4542) (Staphylococcus sp.): 32 µg/mL (≈ 19.4 µM)
MIC Staphylococcus aureus (GC 4542) (Staphylococcus sp.; [1]): 32 µg/mL (≈ 19.4 µM)
MIC Staphylococcus aureus-SMITH (GC 4543) (Staphylococcus sp.; [2]): 32 µg/mL (≈ 19.4 µM)
MIC Staphylococcus aureus (GC 4544) (Staphylococcus sp.): 32 µg/mL (≈ 19.4 µM)
MIC Staphylococcus aureus (GC 4544) (Staphylococcus sp.; [1]): 32 µg/mL (≈ 19.4 µM)
MIC Staphylococcus aureus (GC 4545) (Staphylococcus sp.): 32 µg/mL (≈ 19.4 µM)
MIC Staphylococcus aureus (GC 4545) (Staphylococcus sp.; [1]): 32 µg/mL (≈ 19.4 µM)
MIC Staphylococcus haemolyticus (GC 4546) (Staphylococcus sp.; [3]): 32 µg/mL (≈ 19.4 µM)
MIC Coagulase Negative Staphylococcus (GC 4547) (Staphylococcus sp.; [4]): 32 µg/mL (≈ 19.4 µM)
MIC Coagulase Negative Staphylococcus (GC 4548) (Staphylococcus sp.; [5]): 32 µg/mL (≈ 19.4 µM)
MIC Coagulase Negative Staphylococcus (GC 4549) (Staphylococcus sp.; [6]): 16 µg/mL (≈ 9.69 µM)
MIC Coagulase Negative Staphylococcus (GC 4551) (Staphylococcus sp.; [7]): 32 µg/mL (≈ 19.4 µM)
MIC Coagulase Negative Staphylococcus (GC 6257) (Staphylococcus sp.; strain GC 6257, broth dilution, 18 hours at 35° C.): 32 µg/mL (≈ 19.4 µM)
MIC Streptococcus agalactiae (GC 4564) (Streptococcus sp.): 8 µg/mL (≈ 4.84 µM)
MIC Streptococcus pneumoniae (GC 1894) (Streptococcus sp.): 1 µg/mL (≈ 0.605 µM)
MIC Streptococcus pneumoniae (GC 4565) (Streptococcus sp.): 4 µg/mL (≈ 2.42 µM)
MIC Streptococcus pneumonine (ATCC 6301) (Streptococcus sp.): 8 µg/mL (≈ 4.84 µM)
MIC Streptococcus pyogenes (GC 4563) (Streptococcus sp.): 16 µg/mL (≈ 9.69 µM)
